According to BigSolDB 2.1:

N#CCC(N)=O
solubility (mole fraction)
Settings	273.15 K	278.15 K	283.15 K	288.15 K	293.15 K	298.15 K	303.15 K	308.15 K	313.15 K	318.15 K
in 1,4-dioxane	–	–	–	0.0127	0.0155	0.0186	0.0226	0.0278	0.0342	0.0407
in DMF	0.254	0.262	0.271	0.283	0.295	0.309	0.325	0.343	0.36	0.382
in THF	0.00988	0.0112	0.0128	0.0145	0.0164	0.0187	0.0209	0.0236	0.0268	0.0301
in acetone	0.0248	0.0286	0.0335	0.039	0.0453	0.0527	0.0612	0.0712	0.0833	0.0956
in acetonitrile	0.0154	0.0187	0.0232	0.0272	0.0329	0.0389	0.0469	0.0553	0.0671	0.0795
in chloroform	0.000389	0.000465	0.000562	0.000678	0.000821	0.000985	0.00119	0.00143	0.00173	0.00208
in dichloromethane	0.000321	0.000388	0.000471	0.000559	0.000668	0.000792	0.000931	0.00112	–	–
in ethanol	0.00455	0.00558	0.00681	0.0087	0.0105	0.0129	0.0157	0.0188	0.0229	0.0277
in ethyl acetate	0.0043	0.00509	0.00602	0.00694	0.00829	0.00951	0.011	0.0128	0.0149	0.017
in methanol	0.0126	0.0156	0.0186	0.0227	0.0273	0.0332	0.04	0.0482	0.0558	0.0674
in methyl acetate	0.0115	0.0137	0.0163	0.0195	0.0228	0.0263	0.0307	0.0355	0.0408	0.0467
in n-butanol	0.00201	0.00246	0.00298	0.00377	0.00456	0.0055	0.00667	0.00797	0.00982	0.0119
in n-propanol	0.0022	0.00274	0.00355	0.00461	0.00591	0.00755	0.00935	0.0117	0.0147	0.0182
in water	–	0.0136	0.0179	0.0233	0.0313	0.0405	0.0519	0.0674	0.0887	0.114
